Results on 35 molecules are retold here after patent US9403832B2, “Pyrazolo[1,5-a]pyrimidine-based compounds, compositions comprising them, and methods of their use” (Lexicon Pharmaceuticals, Inc., priority 2012, dated 2016).

T1 sequence (Q2M2I8 1-863 isoform Q2M2I8-2): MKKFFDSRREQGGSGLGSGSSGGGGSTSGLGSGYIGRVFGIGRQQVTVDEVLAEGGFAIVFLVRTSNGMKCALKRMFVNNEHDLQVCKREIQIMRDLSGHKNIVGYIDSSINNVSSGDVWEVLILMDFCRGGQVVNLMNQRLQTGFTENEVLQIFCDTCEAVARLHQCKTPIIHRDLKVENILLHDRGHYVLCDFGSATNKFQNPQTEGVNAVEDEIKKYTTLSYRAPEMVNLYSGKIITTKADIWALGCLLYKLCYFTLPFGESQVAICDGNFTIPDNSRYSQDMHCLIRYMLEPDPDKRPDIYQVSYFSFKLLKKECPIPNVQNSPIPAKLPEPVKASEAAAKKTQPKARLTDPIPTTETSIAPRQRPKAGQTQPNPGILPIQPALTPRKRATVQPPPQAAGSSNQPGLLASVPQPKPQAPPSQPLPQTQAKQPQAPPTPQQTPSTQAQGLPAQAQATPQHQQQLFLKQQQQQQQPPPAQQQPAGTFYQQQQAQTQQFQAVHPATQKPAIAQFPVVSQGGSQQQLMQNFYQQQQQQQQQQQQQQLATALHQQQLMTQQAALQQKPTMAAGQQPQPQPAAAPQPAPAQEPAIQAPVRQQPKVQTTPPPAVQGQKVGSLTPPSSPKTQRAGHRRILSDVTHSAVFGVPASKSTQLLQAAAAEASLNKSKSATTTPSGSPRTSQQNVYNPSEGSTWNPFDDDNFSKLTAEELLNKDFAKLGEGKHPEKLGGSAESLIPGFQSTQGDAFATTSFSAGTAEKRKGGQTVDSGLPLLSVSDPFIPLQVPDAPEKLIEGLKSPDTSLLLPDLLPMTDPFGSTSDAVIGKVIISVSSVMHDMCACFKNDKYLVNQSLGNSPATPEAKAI

This assay addresses T1, AAK1 (Homo sapiens, UniProt Q2M2I8).
T1 construct: NP_055726.2
Put plainly: P81 filter plate assay. Type of assay: biochemical. Particulars: full-length human AAK1, Mu2 substrate, 33P-ATP. The method, then:
Compounds were serially diluted into a Labcyte LDV plate (Labcyte, cat#LP-0200) using a Mutiprobe (PerkinElmer) and Biomek FX (Beckman Coulter) so that the highest compound concentration was at 96 μM. Compounds were then pinged (75 nL per well) into a Greiner 384-well reaction plate (Greiner, #781076) using an ECHO 550 Liquid Handler (Labcyte). A total of 12 μl reaction buffer (IMAP buffer containing Tween and DTT, from Molecular Devices) was then added to each well of columns 1 and 13 for the negative controls and 12 μl of 2× AAK1 (0.2 nM full-length human protein, NCBI accession no. NP_055726.2) was added to the remaining wells. Enzyme was then pre-incubated with compound for 10 minutes at RT. Reactions were initiated upon Minitrak (PerkinElmer) addition of 12 μl substrate mix containing 2× Mu2 (0.2 μM, full length human protein), 2× cold ATP (2 μM), and 1.3 μCi of hot ^33P-ATP. […] proceeded for one hour at RT. Meanwhile, Millipore 384-well P81 filter plates (Millipore, catalog #MZPHNOW10) were placed on a plate washer (Zoom ZW, from Titertek) and pre-wet with 50 μl 1% phosphoric acid. Kinase reactions were then stopped upon addition of 24 μl of 2% phosphoric acid to each well and the Minitrak was then used to transfer 40 μl from each well into the pre-wet Millipore 384-well P81 filter plates. Reaction mixtures were incubated for 10 minutes at RT in the P81 plates, followed by washing five times with 100 μl/well of 1% phosphoric acid using the Zoom filter washer. The bottom of each filter plate was sealed followed by addition of 20 μl Microscint 40 to each well, sealing the top of the plates with Flashplate cover, and then waiting one hour until reading on the TopCount (PerkinElmer).
A word on the IC50: it is the concentration needed to halve the response being measured. Lower therefore signals inhibition by little substance. `Cc1ncccc1-c1cnn2ccc(N3CCN(C(=O)OC(C)C)CC3)nc12` [isopropyl 4-(3-(2-methylpyridin-3-yl)pyrazolo[1,5-a]pyrimidin-5-yl)piperazine-1-carboxylate]: the IC50 was no more than 0.1 µM. In turn, `COCc1ccccc1-c1cnn2ccc(N3CCN(C(=O)OC(C)C)CC3)nc12` [isopropyl 4-(3-(2-(methoxymethyl)phenyl)pyrazolo[1,5-a]pyrimidin-5-yl)piperazine-1-carboxylate] gave an IC50 of no more than 1 µM. In turn, `COc1c(F)cccc1-c1cnn2ccc(N3CCN(C(=O)OC(C)C)CC3)nc12` [isopropyl 4-(3-(3-fluoro-2-methoxyphenyl)pyrazolo[1,5-a]pyrimidin-5-yl)piperazine-1-carboxylate] came in with an IC50 of no more than 0.1 µM. As to `COc1ncccc1-c1cnn2ccc(OCCN(C)C(=O)OC(C)(C)C)nc12` [tert-butyl (2-((3-(2-methoxypyridin-3-yl)pyrazolo[1,5-a]pyrimidin-5-yl)oxy)ethyl)(methyl)carbamate], the IC50 was no more than 0.01 µM.

Molecule `COc1nc(C)ccc1-c1cnn2ccc(NCCOC(C)(C)C)nc12` [N-(2-(tert-butoxy)ethyl)-3-(2-methoxy-6-methylpyridin-3-yl)pyrazolo[1,5-a]pyrimidin-5-amine] returned an IC50 of no more than 0.1 µM. In turn, `COc1nc(C)ccc1-c1cnn2ccc(N3CCN(CC(F)(F)F)CC3)nc12` [3-(2-methoxy-6-methylpyridin-3-yl)-5-(4-(2,2,2-trifluoroethyl)piperazin-1-yl)pyrazolo[1,5-a]pyrimidine] had an IC50 of no more than 0.1 µM. For `COc1cccnc1-c1cnn2ccc(N3CCN(C(=O)OC(C)C)CC3)nc12` [isopropyl 4-(3-(3-methoxypyridin-2-yl)pyrazolo[1,5-a]pyrimidin-5-yl)piperazine-1-carboxylate], the IC50 is no more than 1 µM.

In the case of `CC(C)(C)OC(=O)N1CCC[C@H]1CNc1ccn2ncc(-c3ccc(C(N)=O)cc3)c2n1` [(S)-tert-butyl 2-(((3-(4-carbamoylphenyl)pyrazolo[1,5-a]pyrimidin-5-yl)amino)methyl)pyrrolidine-1-carboxylate], the IC50 was no more than 0.01 µM.

As to `CC(C)OC(=O)N1CCN(c2ccn3ncc(-c4ccc(F)nc4)c3n2)CC1` [isopropyl 4-(3-(6-fluoropyridin-3-yl)pyrazolo[1,5-a]pyrimidin-5-yl)piperazine-1-carboxylate], the IC50 was no more than 0.1 µM. Take `CC(C)OC(=O)N1CCN(c2ccn3ncc(-c4cccn(C)c4=O)c3n2)CC1` [isopropyl 4-(3-(1-methyl-2-oxo-1,2-dihydropyridin-3-yl)pyrazolo[1,5-a]pyrimidin-5-yl)piperazine-1-carboxylate]: the IC50 is no more than 0.01 µM. As for `COCCOCCOC(=O)N1CCN(c2ccn3ncc(-c4cccnc4OC)c3n2)CC1` [2-(2-methoxyethoxy)ethyl 4-(3-(2-methoxypyridin-3-yl)pyrazolo[1,5-a]pyrimidin-5-yl)piperazine-1-carboxylate], the IC50 was no more than 0.1 µM.

`CCCC(=O)Nc1ccn2ncc(-c3cccnc3OC)c2n1` [N-(3-(2-methoxypyridin-3-yl)pyrazolo[1,5-a]pyrimidin-5-yl)butyramide] registered an IC50 of no more than 0.1 µM.

For `Cc1ccc(-c2cnn3ccc(N4CCN(C(=O)OC(C)C)CC4)nc23)cc1F` [isopropyl 4-(3-(3-fluoro-4-methylphenyl)pyrazolo[1,5-a]pyrimidin-5-yl)piperazine-1-carboxylate], the IC50 is no more than 0.1 µM. For `COc1nc(C)ccc1-c1cnn2ccc(NCCCOC(C)(C)C)nc12` [N-(3-(tert-butoxy)propyl)-3-(2-methoxy-6-methylpyridin-3-yl)pyrazolo[1,5-a]pyrimidin-5-amine] the value was no more than 0.01 µM; for `CC(C)C[C@H](N)C(=O)N1CCN(c2ccn3ncc(F)c3n2)CC1` [(S)-2-amino-1-(4-(3-fluoropyrazolo[1,5-a]pyrimidin-5-yl)piperazin-1-yl)-4-methylpentan-1-one], no more than 1 µM. For `COCC(COC)OC(=O)N1CCN(c2ccn3ncc(-c4cccnc4OC)c3n2)CC1` [1,3-dimethoxypropan-2-yl 4-(3-(2-methoxypyridin-3-yl)pyrazolo[1,5-a]pyrimidin-5-yl)piperazine-1-carboxylate] the value was no more than 0.1 µM. `COc1ncccc1-c1cnn2ccc(N(C)CCN(C)C(=O)OC(C)C)nc12` [isopropyl (2-((3-(2-methoxypyridin-3-yl)pyrazolo[1,5-a]pyrimidin-5-yl)(methyl)amino)ethyl)(methyl)carbamate] displayed an IC50 of no more than 0.1 µM. For `FC(F)(F)CN1CCN(c2ccn3ncc(Br)c3n2)CC1` [3-bromo-5-(4-(2,2,2-trifluoroethyl)piperazin-1-yl)pyrazolo[1,5-a]pyrimidine] the value was no more than 0.1 µM; for `CC(C)OC(=O)N1CCN(c2ccn3ncc(-c4cccnc4N)c3n2)CC1` [isopropyl 4-(3-(2-aminopyridin-3-yl)pyrazolo[1,5-a]pyrimidin-5-yl)piperazine-1-carboxylate], no more than 0.1 µM; for `Cc1ccc(-c2cnn3ccc(N4CCN(C(=O)OC(C)C)CC4)nc23)c(=O)n1C` [isopropyl 4-(3-(1,6-dimethyl-2-oxo-1,2-dihydropyridin-3-yl)pyrazolo[1,5-a]pyrimidin-5-yl)piperazine-1-carboxylate], no more than 0.01 µM.

`COc1ncccc1-c1cnn2ccc(-n3cnc(CO)c3)nc12` [(1-(3-(2-methoxypyridin-3-yl)pyrazolo[1,5-a]pyrimidin-5-yl)-1H-imidazol-4-yl)methanol] registered an IC50 of no more than 0.1 µM. Take `CC(C)OC(=O)N1CCN(c2ccn3ncc(C(F)(F)F)c3n2)CC1` [isopropyl 4-(3-(trifluoromethyl)pyrazolo[1,5-a]pyrimidin-5-yl)piperazine-1-carboxylate]: the half-inhibitory concentration (IC50) was no more than 1 µM. `Cc1ccc(-c2cnn3ccc(N4CC[C@H](N(C)C(=O)OC(C)C)C4)nc23)c(=O)n1C` [(S)-isopropyl (1-(3-(1,6-dimethyl-2-oxo-1,2-dihydropyridin-3-yl)pyrazolo[1,5-a]pyrimidin-5-yl)pyrrolidin-3-yl)(methyl)carbamate] displayed an IC50 of no more than 1 µM. The molecule `COc1cnccc1-c1cnn2ccc(N3CCN(C(=O)OC(C)C)CC3)nc12` [isopropyl 4-(3-(3-methoxypyridin-4-yl)pyrazolo[1,5-a]pyrimidin-5-yl)piperazine-1-carboxylate] returned an IC50 of no more than 0.01 µM. Regarding `CC(C)OC(=O)N1CCC[C@H]1CN(C)c1ccn2nccc2n1` [(S)-isopropyl 2-((methyl(pyrazolo[1,5-a]pyrimidin-5-yl)amino)methyl)pyrrolidine-1-carboxylate], the IC50 was no more than 1 µM.

Regarding `CN(C(=O)OC(C)(C)C)[C@H]1CCN(c2ccn3ncc(-c4ccccn4)c3n2)C1` [(S)-tert-butyl methyl(1-(3-(pyridin-2-yl)pyrazolo[1,5-a]pyrimidin-5-yl)pyrrolidin-3-yl)carbamate], the IC50 is no more than 1 µM. As for `COc1ncccc1-c1cnn2ccc(N3C[C@H]4C[C@@H](C3)N4C(=O)OC(C)C)nc12` [(1R,5S)-isopropyl 3-(3-(2-methoxypyridin-3-yl)pyrazolo[1,5-a]pyrimidin-5-yl)-3,6-diazabicyclo[3.1.1]heptane-6-carboxylate], the half-maximal inhibitory concentration (IC50) is no more than 0.1 µM. With `COc1ccc(-c2cnn3ccc(N4CCN(C(=O)OC(C)C)CC4)nc23)c(F)n1` [isopropyl 4-(3-(2-fluoro-6-methoxypyridin-3-yl)pyrazolo[1,5-a]pyrimidin-5-yl)piperazine-1-carboxylate], the half-maximal inhibitory concentration (IC50) is no more than 0.1 µM. `CC(C)OC(=O)N1CCN(c2ccn3ncc(Cl)c3n2)CC1` [isopropyl 4-(3-chloropyrazolo[1,5-a]pyrimidin-5-yl)piperazine-1-carboxylate] came in with an IC50 of no more than 0.1 µM.

Turning to `CC(C)OC(=O)N1CCN(c2ccn3ncc(-c4ccnnc4)c3n2)CC1` [isopropyl 4-(3-(pyridazin-4-yl)pyrazolo[1,5-a]pyrimidin-5-yl)piperazine-1-carboxylate], the IC50 is no more than 1 µM. Consider `COc1ncc(C)cc1-c1cnn2ccc(N(C)CCN(C)C(=O)OC(C)C)nc12` [isopropyl (2-((3-(2-methoxy-5-methylpyridin-3-yl)pyrazolo[1,5-a]pyrimidin-5-yl)(methyl)amino)ethyl)(methyl)carbamate], for which the half-inhibitory concentration (IC50) was no more than 0.1 µM. For `CC(C)OC(=O)N1CCN(c2ccn3ncc(-c4cncc(F)c4)c3n2)CC1` [isopropyl 4-(3-(5-fluoropyridin-3-yl)pyrazolo[1,5-a]pyrimidin-5-yl)piperazine-1-carboxylate], the IC50 is no more than 0.01 µM. For the molecule `COc1ncc(F)cc1-c1cnn2ccc(N3CC[C@H](N(C)C(=O)OC(C)C)C3)nc12` [(S)-isopropyl (1-(3-(5-fluoro-2-methoxypyridin-3-yl)pyrazolo[1,5-a]pyrimidin-5-yl)pyrrolidin-3-yl)(methyl)carbamate], the IC50 was no more than 0.1 µM.

For `COc1ncccc1-c1cnn2ccc(N3CCN(CCC(F)(F)F)CC3)nc12` [3-(2-methoxypyridin-3-yl)-5-(4-(3,3,3-trifluoropropyl)piperazin-1-yl)pyrazolo[1,5-a]pyrimidine], the IC50 is no more than 1 µM. Molecule `CC(C)OC(=O)N(C)[C@H]1CCN(c2ccn3ncc(-c4ccccn4)c3n2)C1` [(S)-isopropyl methyl(1-(3-(pyridin-2-yl)pyrazolo[1,5-a]pyrimidin-5-yl)pyrrolidin-3-yl)carbamate] registered an IC50 of no more than 1 µM.
